We go through six compounds from ChEMBL document CHEMBL1145623, “Structure-activity relationships of anthranilamide-based factor Xa inhibitors containing piperidinone and pyridinone P4 moieties” (Bioorg Med Chem Lett, 2008).

Values after ≈ are worked out from the molar mass of the structure shown.

Data set [1] has as its system Canis familiaris. The experiment in a line: Volume of distribution at steady state in dog at 0.02 to 0.5 mg/kg, iv and po. To be noted: in vivo. The format is ADME, organism-based, Canis lupus familiaris. Further details: dose 0.02-0.5 mg/kg, route oral.
Data set [2] can be described thus: Bioavailability in dog at 0.02 to 0.5 mg/kg, po. The format is ADME, organism-based, Canis lupus familiaris. The note with it: in vivo.
Data set [3] can be described thus: Half life in dog at 0.02 to 0.5 mg/kg, po. The format is ADME, organism-based, Canis lupus familiaris. The note with it: in vivo. Further details: dose 0.02-0.5 mg/kg, route oral.
Data set [4] concerns Canis familiaris. The experiment in a line: Clearance in dog at 0.02 to 0.5 mg/kg, iv and po. The format is ADME, organism-based, Canis lupus familiaris. Further details: dose 0.02-0.5 mg/kg, route oral. To be noted: in vivo.
Data set [5] in a line: Solubility in potassium phosphate buffer at pH 6.5 by thermodynamic equilibrium aqueous solubility assay. Type of data set: physicochemical.

For the compound `COc1cc(Cl)cc(C(=O)Nc2ccc(Cl)cn2)c1NC(=O)c1ccc(-n2ccccc2=O)cc1`, the Vdss in the data set with Canis familiaris [1] came to 0.62 L/kg. Moreover, in data set [2], the bioavailability was 99%. For the same compound, the half-life in data set [3] was 0.7 h. The CL in the data set on Canis familiaris [4] was found to be 11.2 mL/min/kg.

`CN(C)CCOc1cc(Cl)cc(C(=O)Nc2ccc(Cl)cn2)c1NC(=O)c1ccc(N2CCCCC2=O)cc1`: in data set [5], the solubility (thermodynamic) amounted to 912 µg/mL (≈ 1600 µM).

In the data set with Canis familiaris [1], `COc1ccc(-n2nc(C(N)=O)c3c2C(=O)N(c2ccc(N4CCCCC4=O)cc2)CC3)cc1` [APIXABAN] returned a Vdss of 0.2 L/kg. The compound also gave a half-life in data set [3] of 5.8 h. Moreover, the CL with Canis familiaris [4] stood at 0.33 mL/min/kg.

In the data set with Canis familiaris [1], `COc1cc(Cl)cc(C(=O)Nc2ccc(Cl)cn2)c1NC(=O)c1ccc(-n2ccccc2=O)nc1` registered a Vdss of 0.81 L/kg. This compound came in with a bioavailability in data set [2] of 74%. In data set [3], this compound gave a half-life of 1.6 h. Also, the CL in the data set with Canis familiaris [4] turned out to be 5 mL/min/kg.

As to `COc1cc(Cl)cc(C(=O)Nc2ccc(Cl)cn2)c1NC(=O)c1ccc(N2CCCCC2=O)cc1`, in the data set with Canis familiaris [1], the Vdss came out at 1.3 L/kg. In addition, in data set [5], the thermodynamic solubility is 19 µg/mL (≈ 37 µM). In addition, the bioavailability in data set [2] was determined as 44%. In data set [3], the half-life is 1.5 h. Also, the CL with Canis familiaris [4] worked out at 12 mL/min/kg.

In the data set on Canis familiaris [1], `COc1cc(Cl)cc(C(=O)Nc2ccc(Cl)cn2)c1NC(=O)c1ccc(-n2ccccc2=O)cc1F` showed a Vdss of 2.6 L/kg. In data set [2], this compound displayed a bioavailability of 18%. The half-life in data set [3] is 0.7 h. Moreover, the CL in the data set on Canis familiaris [4] turned out to be 13 mL/min/kg.
